Results as given in patent US20110207742A1, “METHOD FOR REDUCTION, STABILIZATION AND PREVENTION OF RUPTURE OF LIPID RICH PLAQUE” (KOWA CO., LTD., priority 2004, published 2011).

How the values were obtained:
Assay type in all cases: in vivo, rabbit
WHHL rabbits [1] = test: Total plasma cholesterol (TC) level in WHHL rabbits after 16 weeks of administration; conditions: Pitavastatin 0.5 mg/kg, compound 1 10 mg/kg; for Total plasma cholesterol (mg/dL) Mean ± S.E: male homozygous WHHL rabbits, via drinking water for 16 weeks, control 646.8 ± 27.1
Protocol: For the investigation of the effect of these drugs on total plasma cholesterol (TC), one or both of the compound 1 (10 mg/kg) and Pitavastatin (0.5 mg/kg) were administered to WHHL rabbits via drinking water for 16 weeks to measure the TC of each of the WHHL rabbits.
(§1) A WHHL rabbit was discovered by Dr. Yoshio Watanabe, a former medical professor at Kobe University in 1973, and was established as a strain. The WHHL rabbit is a model animal which naturally develops hypercholesterolemia and arteriosclerosis. Using such WHHL rabbits, the effect of the drugs on plaque stabilization was examined according to the following method.
(§2) Male homozygous WHHL rabbits (Kitayama Labes, Nagano) were purchased from Oriental Yeast (Tokyo), and WHHL rabbits aged about 4 months were used for experiment. For control, single administration of Pitavastatin, single administration of the compound 1, combined administration of Pitavastatin and the compound 1, 8 WHHL rabbits, 7 WHHL rabbits, 3 WHHL rabbits, and 4 WHHL rabbits were used, respectively.
(§3) Pitavastatin was synthesized by Nissan Chemical Industries, Ltd. (Tokyo) and was supplied therefrom. In the case of administration of Pitavastatin, 0.5 mg/kg of Pitavastatin dissolved in 400 mL (which is an average amount of drinking water per rabbit a day) of drinking water was administered to each rabbit. In the case of administration of the compound 1, 10 mg/kg (in terms of free base) of the compound 1 dissolved in 400 mL (which is an average amount of drinking water per rabbit a day) of ion-exchange water was administered to each rabbit. One or both of the drugs were administered for 16 weeks.
In the next morning after last administration, each of the rabbits was placed in a restraining box, and the ear of the rabbit was sterilized with an alcohol. Then, about 1 mL of blood was collected from an ear vein with a syringe containing EDTA (final concentration, 0.1%). The collected blood was centrifuged at 4,200×g for 5 minutes to fractionate plasma. TC was measured using cholesterol E-test Wako (by a cholesterol oxidaseΩDAOS method).
(§4) The results of TC and the ratio of aortic plaque area were expressed as average±standard error. Significance test between the control group and the drug administration groups were detected using Dunnett's test. Histopathological findings were evaluated in terms of the percentage of plaque area occupied by macrophages and the percentage of plaque area occupied by collagen.

WHHL rabbits [2] = test: Histopathology of Azan-stained aortic arch, image analysis of plaque area occupied by macrophages and collagen; conditions: Azan stain, 16 weeks, Pitavastatin 0.5 mg/kg, compound 1 10 mg/kg; for percentage of plaque area occupied by collagen: control 26.5%; for percentage of plaque area occupied by macrophages: control 29.5%
Description: In addition to the evaluation of TC, an aorta excised from each WHHL rabbit was histopathologically examined After the completion of measurement, an aortic arch of each WHHL rabbit was immersion-fixed with 4% paraformaldehyde overnight, and was then embedded in paraffin in the usual manner to prepare a paraffin section. The paraffin section was stained with Azan stain. […] FIGS. 1A to 1D are microscope photographs of Azan-stained aortic arches of the WHHL rabbits, and FIGS. 2A and 2B are graphs which show the analysis results of the images shown in FIGS. 1A to 1D. In this regard, it is to be noted that FIG. 1A is a microscope photograph of a control group to which no drug was administered, FIG. 1B is a microscope photograph of a group to which Pitavastatin was administered in single, FIG. 1C is a microscope photograph of a group to which the compound 1 was administered in single, and FIG. 1D is a microscope photograph of a group to which Pitavastatin and the compound 1 were administered in combination.
as §1, §2
as §3, with “weeks. […]” for “weeks.”
as §4

WHHL rabbits [3] = test: Ratio of aortic plaque area in WHHL rabbits; conditions: Pitavastatin 0.5 mg/kg, compound 1 10 mg/kg; for Ratio of aortic plaque area (%) Mean ± S.E: plaque area/aortic intimal surface area×100, 16 weeks via drinking water, control 49.6 ± 5.0; for Inhibition ratio (%) of ratio of aortic plaque area: vs control group, 16 weeks via drinking water
Description: as §1, §2, §3
The rabbit was perfused at a perfusion pressure of 120 mmH2O with physiological saline injected from a cardiac apex for about 5 minutes. Further, the rabbit was perfused with 4% paraformaldehyde in the same manner as described above to fix an aorta. The aorta was excised from the rabbit, and fat and connective tissue attached to the aorta were separated. An incision was made along the lesser curvature of the aorta, and then the greater curvature of the aorta was partially incised. The aorta was sandwiched between plastic films in such a manner that the intimal side of the aorta was observed, and a macro image was taken (CAMEDIA E-10, manufactured by Olympus Corporation). Based on the image, plaque area (that is, the area of lipid deposition) and aortic intimal surface area were analyzed by an image analyzer (Win Roof Ver. 5.0, manufactured by MITANI CORPORATION). The ratio of aortic plaque area of each of the rabbits was obtained using the formula:
plaque area/aortic intimal surface area×100
as §4

| SMILES | effect on TC (in words) (WHHL rabbits [1]; WHHL rabbits, 16 weeks via drinking water) | Total plasma cholesterol (mg/dL) Mean ± S.E (WHHL rabbits [1]) | percentage of plaque area occupied by collagen (WHHL rabbits [2]) | percentage of plaque area occupied by macrophages (WHHL rabbits [2]) | Ratio of aortic plaque area (%) Mean ± S.E (WHHL rabbits [3]) | Inhibition ratio (%) of ratio of aortic plaque area (WHHL rabbits [3]) | Inhibition ratio (%) of total plasma cholesterol (WHHL rabbits [1]; vs control group, WHHL rabbits, 16 weeks via drinking water) |
| --- | --- | --- | --- | --- | --- | --- | --- |
| CSc1cc(C)nc(SC)c1NC(=O)CN1CCN(CCSc2nc3ccccc3[nH]2)CC1 [Compound 1, 2-[4-[2-(benzimidazole-2-ylthio)ethyl]piperazin-1-yl]-N-[2,4-bis(methylthio)-6-methyl-3-pyridyl]acetamide] | no effect on TC | 648.3 ± 82.2 mg/dL | 44.8% | 14.9% | 43.7 ± 4.1% | 11.9% |  |
| O=C(O)C[C@H](O)C[C@H](O)/C=C/c1c(C2CC2)nc2ccccc2c1-c1ccc(F)cc1 [Pitavastatin] |  | 524.2 ± 35.6 mg/dL | 34.7% | 17.1% | 47.1 ± 6.6% | 5.0% | 19% |
